# Data reported in patent publication US11752149B2, “Muscarinic acetylcholine M1 receptor antagonists” (Pipeline Therapeutics, Inc., priority 2019, dated 2023).
# Where two headings read alike, the source gives them in different places.
# Biological target: human M1 receptor (Homo sapiens (Human), UniProt P11229)
# Experiment: In vitro functional assay of muscarinic acetylcholine receptor activity, aequorin calcium flux, reversal of EC80 acetylcholine
# Format: cell-based
# Procedure: CHO-K1 cells stably expressing human M1 receptor with aequorin (Perkin Elmer) were grown in F12 media (Gibco) containing 10% FBS (ATCC), 0.4 mg/mL geneticin (Sigma-Aldrich) and 0.25 mg/mL Zeocin (Invitrogen). Cells were grown as per the manufacturer's protocol. For compound testing, cells were grown to confluency and detached gently with Accutase (Sigma-Aldrich) followed by centrifugation for 5 min at 150×g. Cells were then re-suspended in assay buffer (i.e. DMEM/F-12 HEPES without phenol red (Invitrogen) with 0.1% BSA (Sigma-Aldrich)) at a density of 5×10^6 cells/ml. Under sterile conditions, 5 μM coelenterazine (Invitrogen) was added to the cells, mixed, then incubated at room temperature protected from light, with gentle agitation, for 4 h.
# Primary compound plates were prepared in 100% DMSO in opaque 96-well plates (VWR) and serially diluted in half log increments. Secondary compound plates were prepared at 3× concentration in assay buffer. Compounds were added to white, clear bottom tissue culture treated 96-well plates (Fisher Scientific). Coelenterazine-loaded cells were then added at 5×10^5 cells/well.
# Compounds and cells were incubated at room temperature for 30 min in the dark. Acetylcholine at the EC80 concentration was added and calcium flux measured using a FlexStation 3 (Molecular Devices). Sigmoidal dose-response curves were generated by measuring luminescence over 40 sec and calculating the area under the curve. Dose response curves and IC50 values were generated using Prism (GraphPad). Compounds were tested at a final concentration range of 100 pM to 10 μM in 0.1% DMSO.
# [1] = CHO-K1 cells expressing human M1 receptor with aequorin, acetylcholine at EC80, read-out: M1 IC50
# human M1 receptor, sequence (P11229 whole entry): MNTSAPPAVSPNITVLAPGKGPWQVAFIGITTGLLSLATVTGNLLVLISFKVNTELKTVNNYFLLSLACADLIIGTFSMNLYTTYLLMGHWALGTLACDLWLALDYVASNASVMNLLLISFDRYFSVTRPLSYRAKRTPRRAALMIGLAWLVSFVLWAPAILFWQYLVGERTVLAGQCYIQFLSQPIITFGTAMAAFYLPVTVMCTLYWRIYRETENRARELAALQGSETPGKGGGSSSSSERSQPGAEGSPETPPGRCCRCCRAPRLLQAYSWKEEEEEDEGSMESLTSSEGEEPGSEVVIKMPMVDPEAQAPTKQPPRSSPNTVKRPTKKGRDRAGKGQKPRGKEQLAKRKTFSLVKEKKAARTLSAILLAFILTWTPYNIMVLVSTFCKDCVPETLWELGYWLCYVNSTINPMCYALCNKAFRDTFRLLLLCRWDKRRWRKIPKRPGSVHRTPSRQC
SMILES,IC50,IC50 [1]
"N#Cc1ccc(N2C3CCC2CN(C(=O)CCS(=O)(=O)c2ccccc2C2CC2(F)F)C3)nc1 (racemic) [Example 5, 6-(3-(3-((2-(2,2-difluorocyclopropyl)phenyl)-sulfonyl)-propanoyl)-3,8-diazabicyclo[3.2.1]octan-8-yl)nicotinonitrile]",10 to 100 nM,–
"N#Cc1ccc(N2C3CCC2CN(C(=O)CCS(=O)(=O)c2ccccc2[C@@H]2CC2(F)F)C3)nc1 (single isomer, unassigned) [Example 36]",100 to 1000 nM,–
"N#Cc1ccc(N2C3CCC2CN(C(=O)CCCS(=O)(=O)c2ccccc2I)C3)nc1 [Example 1, 6-(3-(4-((2-iodophenyl)sulfonyl)butanoyl)-3,8-diazabicyclo[3.2.1]octan-8-yl)nicotinonitrile]",–,< 10 nM
"N#Cc1ccc(N2C3CCC2CN(C(=O)CCS(=O)(=O)c2cccc(F)c2C2CC2)C3)nc1 [Example 4, 6-(3-(3-((2-cyclopropyl-3-fluorophenyl)sulfonyl)-propanoyl)-3,8-diazabicyclo[3.2.1]octan-8-yl)nicotinonitrile]",–,< 10 nM
"CC(C)(O)c1cc(S(=O)(=O)CCC(=O)N2CC3CCC(C2)N3c2ccc(C#N)cn2)ccc1F [Example 6, 6-(3-(3-((4-fluoro-3-(2-hydroxypropan-2-yl)phenyl)-sulfonyl)propanoyl)-3,8-diazabicyclo[3.2.1]octan-8-yl)nicotinonitrile]",–,1000 to 10000 nM
"N#Cc1ccc(N2C3CCC2CN(C(=O)CCS(=O)(=O)c2cccc(F)c2)C3)nc1 [Example 7, 6-{3-[3-(3-fluorobenzenesulfonyl)propanoyl]-3,8-diazabicyclo[3.2.1]octan-8-yl}pyridine-3-carbonitrile]",10 to 100 nM,–
"N#Cc1ccc(N2C3CCC2CN(C(=O)CCS(=O)(=O)c2cc(F)cc(F)c2)C3)nc1 [Example 8, 6-{3-[3-(3,5-difluorobenzenesulfonyl)propanoyl]-3,8-diazabicyclo [3.2.1]octan-8-yl}pyridine-3-carbonitrile]",10 to 100 nM,–
"COc1cccc(S(=O)(=O)CCC(=O)N2CC3CCC(C2)N3c2ccc(C)nn2)c1 [Example 9, 3-(3-methoxybenzenesulfonyl)-1-[8-(6-methylpyridazin-3-yl)-3,8-diazabicyclo[3.2.1]octan-3-yl]propan-1-one]",100 to 1000 nM,–
"COc1cccc(S(=O)(=O)CCC(=O)N2CC3CCC(C2)N3c2ccc(C)nc2)c1 [Example 10, 3-(3-methoxybenzenesulfonyl)-1-[8-(6-methylpyridin-3-yl)-3,8-diazabicyclo[3.2.1]octan-3-yl]propan-1-one]",–,1000 to 10000 nM
"COc1cc(F)cc(S(=O)(=O)CCC(=O)N2CC3CCC(C2)N3c2ccc(C#N)cn2)c1 [Example 11, 6-{3-[3-(3-fluoro-5-methoxybenzenesulfonyl)propanoyl]-3,8-diazabicyclo [3.2.1]octan-8-yl}pyridine-3-carbonitrile]",10 to 100 nM,–
"COc1ccccc1S(=O)(=O)CCC(=O)N1CC2CCC(C1)N2c1ccc(C#N)cn1 [Example 12, 6-{3-[3-(2-methoxybenzenesulfonyl)propanoyl]-3,8-diazabicyclo [3.2.1]octan-8-yl}pyridine-3-carbonitrile]",10 to 100 nM,–
"COc1ccc(F)cc1S(=O)(=O)CCC(=O)N1CC2CCC(C1)N2c1ccc(C#N)cn1 [Example 13, 6-{3-[3-(5-fluoro-2-methoxybenzenesulfonyl)propanoyl]-3,8-diazabicyclo [3.2.1]octan-8-yl}pyridine-3-carbonitrile]",10 to 100 nM,–
"COc1c(F)cccc1S(=O)(=O)CCC(=O)N1CC2CCC(C1)N2c1ccc(C#N)cn1 [Example 14, 6-{3-[3-(3-fluoro-2-methoxybenzenesulfonyl)propanoyl]-3,8-diazabicyclo [3.2.1]octan-8-yl}pyridine-3-carbonitrile]",10 to 100 nM,–
"COc1cc(S(=O)(=O)CCC(=O)N2CC3CCC(C2)N3c2ccc(C#N)cn2)ccn1 [Example 15, 6-(3-{3-[(2-methoxypyridin-4-yl)sulfonyl]propanoyl}-3,8-diazabicyclo[3.2.1]octan-8-yl)pyridine-3-carbonitrile]",10 to 100 nM,–
"COc1cccc(S(=O)(=O)CCC(=O)N2CC3CCC(C2)N3c2ccc(C(F)(F)F)cn2)c1 [Example 16, 3-(3-methoxybenzenesulfonyl)-1-{8-[5-(trifluoromethyl)pyridin-2-yl]-3,8-diazabicyclo[3.2.1]octan-3-yl}propan-1-one]",100 to 1000 nM,–
"COc1cccc(S(=O)(=O)CCC(=O)N2CC3CCC(C2)N3c2ccc(C(F)(F)F)nn2)c1 [Example 17, 3-(3-methoxybenzenesulfonyl)-1-{8-[6-(trifluoromethyl)pyridazin-3-yl]-3,8-diazabicyclo[3.2.1]octan-3-yl}propan-1-one]",100 to 1000 nM,–

SMILES,IC50,IC50 [1]
"COc1cccc(S(=O)(=O)CCC(=O)N2CC3CCC(C2)N3c2ccc(C)cn2)c1 [Example 18, 3-(3-methoxybenzenesulfonyl)-1-[8-(5-methylpyridin-2-yl)-3,8-diazabicyclo[3.2.1]octan-3-yl]propan-1-one]",–,1000 to 10000 nM
"COc1cccc(S(=O)(=O)CCC(=O)N2CC3CCC(C2)N3c2ccc(F)c(C#N)c2)c1 [Example 19, 2-fluoro-5-{3-[3-(3-methoxybenzenesulfonyl)propanoyl]-3,8-diazabicyclo [3.2.1]octan-8-yl}benzonitrile]",100 to 1000 nM,–
"COc1cccc(S(=O)(=O)CCC(=O)N2CC3CCC(C2)N3c2ccc(C#N)c(F)c2)c1 [Example 20, 2-fluoro-4-{3-[3-(3-methoxybenzenesulfonyl)propanoyl]-3,8-diazabicyclo [3.2.1]octan-8-yl}benzonitrile]",10 to 100 nM,–
"N#Cc1ccc(N2C3CCC2CN(C(=O)CCS(=O)(=O)c2cccc(OC4CC4)c2)C3)nc1 [Example 21, 6-{3-[3-(3-cyclopropoxybenzenesulfonyl)propanoyl]-3,8-diazabicyclo [3.2.1]octan-8-yl}pyridine-3-carbonitrile]",100 to 1000 nM,–
"N#Cc1ccc(N2C3CCC2CN(C(=O)CCS(=O)(=O)c2cccc(Br)c2)C3)nc1 [Example 22, 6-{3-[3-(3-bromobenzenesulfonyl)propanoyl]-3,8-diazabicyclo [3.2.1]octan-8-yl}pyridine-3-carbonitrile]",100 to 1000 nM,–
"N#Cc1ccc(N2C3CCC2CN(C(=O)CCS(=O)(=O)c2ncccc2C2CC2)C3)nc1 [Example 23, 6-(3-{3-[(3-cyclopropylpyridin-2-yl)sulfonyl]propanoyl}-3,8-diazabicyclo[3.2.1]octan-8-yl)pyridine-3-carbonitrile]",100 to 1000 nM,–
"N#Cc1ccc(N2C3CCC2CN(C(=O)CCS(=O)(=O)c2ccnc(C4CC4)c2)C3)nc1 [Example 25, 6-(3-{3-[(2-cyclopropyl-pyridin-4-yl)sulfonyl]propanoyl}-3,8-diazabicyclo [3.2.1]octan-8-yl)pyridine-3-carbonitrile]",100 to 1000 nM,–
"N#Cc1ccc(N2C3CCC2CN(C(=O)CCS(=O)(=O)c2ccccc2C(F)F)C3)nc1 [Example 26, 6-(3-{3-[2-(difluoromethyl)benzene-sulfonyl]propanoyl}-3,8-diazabicyclo-[3.2.1]octan-8-yl)pyridine-3-carbonitrile]",100 to 1000 nM,–
"N#Cc1ccc(N2C3CCC2CN(C(=O)CCS(=O)(=O)c2cccnc2C2CC2)C3)nc1 [Example 27, 6-(3-{3-[(2-cyclopropylpyridin-3-yl)sulfonyl]propanoyl}-3,8-diazabicyclo[3.2.1]octan-8-yl)pyridine-3-carbonitrile]",10 to 100 nM,–
"N#Cc1ccc(N2C3CCC2CN(C(=O)CCS(=O)(=O)c2ccccc2Br)C3)nc1 [Example 28, 6-(3-(3-((2-bromophenyl)sulfonyl)propanoyl)-3,8-diazabicyclo [3.2.1]octan-8-yl)nicotinonitrile]",100 to 1000 nM,–
"N#Cc1ccc(N2C3CCC2CN(C(=O)CCS(=O)(=O)c2ccccc2C(F)(F)F)C3)nc1 [Example 29, 6-(3-(3-((2-(trifluoromethyl)phenyl)sulfonyl)propanoyl)-3,8-diazabicyclo[3.2.1]octan-8-yl)nicotinonitrile]",100 to 1000 nM,–
"N#Cc1ccc(N2C3CCC2CN(C(=O)CCS(=O)(=O)c2ccccc2OC(F)(F)F)C3)nc1 [Example 30, 6-(3-(3-((2-(trifluoromethoxy)phenyl)sulfonyl)propanoyl)-3,8-diazabicyclo-[3.2.1]octan-8-yl)nicotinonitrile]",100 to 1000 nM,–
"CC(F)(F)c1ccccc1S(=O)(=O)CCC(=O)N1CC2CCC(C1)N2c1ccc(C#N)cn1 [Example 31, 6-(3-(3-((2-(1,1-difluoroethyl)phenyl)sulfonyl)propanoyl)-3,8-diazabicyclo [3.2.1]octan-8-yl)nicotinonitrile]",100 to 1000 nM,–
"Cc1ccc(F)cc1S(=O)(=O)CCC(=O)N1CC2CCC(C1)N2c1ccc(C#N)cn1 [Example 32, 6-(3-(3-((5-fluoro-2-methylphenyl)sulfonyl)propanoyl)-3,8-diazabicyclo [3.2.1]octan-8-yl)nicotinonitrile]",100 to 1000 nM,–
"Cc1cc(F)cc(S(=O)(=O)CCC(=O)N2CC3CCC(C2)N3c2ccc(C#N)cn2)c1 [Example 33, 6-(3-(3-((3-fluoro-5-methylphenyl)sulfonyl)propanoyl)-3,8-diazabicyclo [3.2.1]octan-8-yl)nicotinonitrile]",100 to 1000 nM,–
